Where only a bound is given, the exact number is not on record here.

`CC(C)(C)C(NC(=O)COc1ccccc1)Nc1c(Nc2cccnc2)c(=O)c1=O` (centres undefined): the melting point (in general, the temperature of the solid-liquid transition) fell in the range of 227 to 228 °C. Consider `CC(Cl)(Cl)C(NC(=O)c1ccc(Cl)cc1)NC(=NC#N)Nc1cccnc1` (centres undefined), for which the melting point lay in the range of 185 to 187 °C. With `COc1ccccc1Nc1cccc2c1C(=O)N(C1CCC(=O)NC1=O)C2=O` (centres undefined), the melting point fell in the range of 223 to 225 °C.

In turn, `C[C@@H]1CN(C(=O)[C@@](C)(O)C(F)(F)F)[C@@H](C)CN1S(=O)(=O)c1ccc(F)cc1` displayed a melting point of 174 to 175 °C.

As for `COC(=O)Cc1ccc(OCCNC(=O)C2Cc3ccccc3N2S(=O)(=O)c2ccc(-c3ccc(Cl)cc3)c(C(F)(F)F)c2)cc1` (centres undefined), the melting point worked out at 60 °C.

`Nc1nc(N)c2ncn(C3COC(CO)O3)c2n1` (single isomer, unassigned; (-)) gave a melting point of 237 to 239 °C. The compound `Cn1c(=O)c2c(N)nc(N)nc2n(C)c1=O` yielded a melting point above 300 °C. Next, `COC(=O)c1ccc2ncc(C(=O)NCc3ccc(Cl)cc3)c(O)c2c1`: 290 to 292 °C; `COc1ccc(-c2nnc(NC3CCN(Cc4ccc(C(=O)O)cc4)CC3)c3cc(OC)ccc23)cc1`: 295 °C.

`NC(=O)C1CCN(Cc2cnc3cc(NC(=O)c4ccc(-c5ccc(F)cc5)cc4)ccc3c2)CC1` gave a melting point of 261 to 265 °C.

In the case of `CCCC1=C(C#N)C(c2ccccc2Cl)c2c(n[nH]c2-c2cccs2)N1` (centres undefined), the melting point was found to be 256 °C. As to `CCOC(=O)C=Cc1cc(Br)cc(Cc2cccnc2)c1`, the melting point fell in the range of 81 to 83 °C. Under `CCN1C[C@@H](SCc2ccc(OC)cc2)C[C@H]1C(=O)NC` stands 68 to 70 °C; under `Cc1cccc2c1N(CC(=O)N1CC3CCC(CC3)C1)C(=O)C(NC(=O)Nc1cccc(CO)c1)N=C2c1ccccc1F` (centres undefined), 188 to 202 °C; under `Cc1ccc2c(c1)C1(COc3cc4c(cc31)OCO4)C(=O)N2Cc1ccc(C(F)(F)F)o1` (centres undefined), 96 to 98 °C. Compound `COC(=O)Cc1cc(Cl)c2c(c1)CCC(c1ccccc1)N2C` (centres undefined) yielded a melting point of 78 to 80 °C. As to `CC(C)C(=O)CCC(=O)c1ccc(F)cc1`, the melting point was 47 to 49 °C. Next, `NC(=O)/C=C1\CCc2c(F)cc(F)cc21`: 178 to 180 °C. Next, `O=S1(=O)NCC(O)c2ccsc21` (centres undefined): 138 to 140 °C. `Cc1nn(-c2c(Cl)cc(C(F)(F)F)cc2Cl)c(Cl)c1C=O`: the melting point is 201 °C.

Consider `COC(=O)C1=C(Cl)/C(=N/OS(=O)(=O)c2ccc(C)cc2)CC(c2ccc(Cl)c(OC)c2F)N1` (centres undefined), for which the melting point lay within 62 to 64 °C.

`O=[N+]([O-])c1cc(C(F)(F)F)cc2c(Cl)ccnc12` came in with a melting point of 100 to 107 °C. Take `CC(=O)OCC1OC(n2ccc(=O)[nH]c2=O)C(OC(C)=O)C1OC(C)=O` (centres undefined): the melting point lay in the range of 129 to 130 °C. Under `CCN1C(=O)CCCc2c1ccc(Nc1ncc(Cl)c(Nc3ccc(N4CCOCC4)cc3OC)n1)c2OC` stands 210 to 212 °C; under `Cc1c2n(c3ccccc13)C(=O)C(C)(Cc1ncn(C(c3ccccc3)(c3ccccc3)c3ccccc3)c1C)CC2` (centres undefined), 116 to 118 °C; under `COc1ccc2c(c1OC)CCCC2c1c[nH]cn1` (centres undefined), 160 °C. `Cc1c(Nc2ccc(Br)cc2C(=O)O)cccc1C(F)(F)F` showed a melting point of 223 to 225 °C. Regarding `O=C1C=C(c2cccc(Cl)c2)CN(Cc2ccccc2)C1`, the melting point was 143 to 145 °C.

Compound `CC(=O)OCCCNc1nnc(NCCCOC(C)=O)c2c1C(=O)c1ccccc1C2=O` had a melting point of 142 to 145 °C. With `COc1cc(F)c(C(O)CNCc2csc(NC(C)=O)n2)cc1OC` (centres undefined), the melting point fell in the range of 173 to 175 °C. Under `CCOC(=O)C1=C(C)NC(C)=C(C(=O)OCCN2C(=O)c3ccccc3C2=O)C1c1cccc([N+](=O)[O-])c1` (centres undefined) stands 194 to 195 °C; under `CC(C)C(C(=O)O)N(Cc1cccnc1)S(=O)(=O)c1ccc(-c2ccc(NC(=O)c3cc4ccccc4o3)cc2)cc1` (centres undefined), 261 to 262 °C; under `COc1cccc(CNC(=O)c2nc3c(cc(C)n3S(C)(=O)=O)c(=O)[nH]2)c1`, 211 to 213 °C. Consider `Cc1oc(-c2ccccc2)nc1CCOc1ccc(CC(Nc2ccccc2C(=O)c2ccccc2C(=O)O)C(=O)O)cc1` (centres undefined), for which the melting point fell in the range of 107 to 110 °C.

Compound `Nc1cccc2c1Cc1cccc(N)c1C2` yielded a melting point of 179 °C. In turn, `c1ccc(CNC2CN(C(c3ccccc3)c3ccccc3)C2)cc1` had a melting point of 73 to 75 °C. `CC1=C(c2ccc(C(=O)N3Cc4ccc(C(=O)C(Cl)(Cl)Cl)n4Cc4ccccc43)cc2)CCCC1` had a melting point of 171 °C.

As for `CCCS(=O)(=O)c1ccccc1S(=O)(=O)Cl`, the melting point lay in the range of 74 to 77 °C. `CC(=O)OCC1OC(n2cnc3c(NN4CCCCC4)nc(N)nc32)C(OC(C)=O)C1OC(C)=O` (centres undefined) displayed a melting point of 77 to 79 °C.

`Cc1oc(-c2ccco2)nc1COc1ccc(CON=C(CCCCCCC(=O)O)c2ccccc2)cc1` had a melting point of 75 to 77 °C.

Turning to `CCOC(=O)c1cc2c(C(=O)CN(Cc3ccccc3)C(C)(C)C)ccc(OCc3ccccc3)c2[nH]1`, the melting point is 155 to 157 °C.

Regarding `Nn1c(-c2cncc(Cl)c2)cc2ccccc21`, the melting point was 154 to 156 °C. As for `O=C1c2cc(OCc3ccccc3Cl)ccc2CCN1Cc1cccnc1`, the melting point lay within 88.5 to 90 °C. `Cc1cc(CCCCC(=O)O)no1` showed a melting point of 58 to 60 °C. `CCOC(=O)c1c(Cl)nn(C)c1S(=O)(=O)NC(=O)Nc1nc(OC)cc(OC)n1`: the melting point was in the range of 169 to 170 °C. The compound `NC(CO)c1ccc(-c2ccc(SC(F)F)cc2)cc1` (centres undefined) had a melting point of 108 to 110 °C. With `CNC(=O)C1CN(CC(=O)Nc2c(Cl)cc(Cl)cc2Cl)CCN1` (centres undefined), the melting point turned out to be 169 °C.

Take `N#Cc1ccc2nc(CCl)[nH]c2c1`: the melting point is 144 to 146 °C.

For the compound `O=C(NC(CO)CO)c1ccc2cc(C(=O)O)[nH]c2c1`, the melting point was in the range of 240 to 245 °C. For `O=c1[nH]ncc2[nH]c(-c3ccc(OC(F)F)c4c3C=CC(C3CC3)O4)cc12` (centres undefined), the melting point was in the range of 232 to 242 °C. Compound `CCOC(=O)COc1ccc2cc(-c3cc4ccccc4s3)ccc2c1Cl` gave a melting point of 187 to 188 °C. The compound `COc1ccc(CSc2nnc(-c3ccc4nccn4c3)o2)cc1C#N` displayed a melting point of 211 to 212 °C. Compound `CSCC(C)(C)NC(=O)c1c(I)cccc1Oc1ccc(Cl)cc1C` showed a melting point of 128 to 130 °C. For the compound `COc1nc(C(F)(F)C(F)(F)F)cc(=O)n1-c1cc(OC(C)C)c(Cl)cc1F`, the melting point was 79 to 81 °C. Under `O=C1c2ccccc2S(=O)(=O)N1CCCCOc1ccccc1` stands 92 to 94 °C; under `OCCc1cnc(Nc2n[nH]c3ccc(-c4ncccc4Cl)cc23)s1`, 206 to 208 °C. In turn, `O=S(=O)(Nc1nc2ncc(Cl)cn2n1)c1ccccc1Cl` came in with a melting point of 256 to 260 °C.

Regarding `Cc1c(C)c2c(c(C)c1O)CCC(C)(C1N[C@H](C(=O)O)CS1)O2` (some centres undefined), the melting point was in the range of 184 to 186 °C. For `COc1ccc(Cl)cc1-c1c(N)c(=O)[nH]c2cc([N+](=O)[O-])ccc12`, the melting point is 293 to 295 °C. `Cn1ncc2c1-c1c(Oc3ccc4c(c3)OCO4)sc(C(=O)NC(C)(C)C)c1CC2` had a melting point of 171 to 179 °C. With `Oc1nc2cc(Br)c3ccccc3c2nc1O`, the melting point was above 300 °C. Regarding `Cc1cc(C2=NN(C(=O)C=CCC(=O)O)C(C)Cc3cc4c(cc32)OCO4)ccc1[N+](=O)[O-]` (centres undefined), the melting point lay within 158 to 160 °C.

Compound `CCOc1nc(NCc2ccco2)nc(Nc2ccc3[nH]c(-c4cccs4)nc3c2)n1` registered a melting point of 170 to 172 °C. The compound `COc1cccc([C@H]2O[C@H](CC(=O)Nc3cc(CCCCC(=O)O)ccc3F)C(=O)N(CC(C)(C)CO)c3ccc(Cl)cc32)c1OC` registered a melting point of 115 to 118 °C.

As to `Nc1nc(NCc2ccc(OCc3ccccc3)cc2)nc2nc(-c3ccco3)nn12`, the melting point was 168 to 170 °C.

With `O=C(O)c1ccccc1OCCN1CCC(c2cn(Cc3ccc(Cl)s3)c3ccccc23)CC1`, the melting point was 178 to 179 °C. Next, `CC(C)(C)OC(=O)N1CCN(C(=O)OC(C)(C)C)C1=S`: 117 to 118 °C; `CCOC(=O)NCCOc1ccc(Oc2cccc(Cl)c2)cc1`: 45 to 46 °C; `COc1ccc2c(c1)C(C(=O)N(Cc1ccc(Cl)cc1)c1ccc(C(C)C)cc1)CCC2` (centres undefined): 87 to 88 °C. The compound `O=c1[nH]c2cc(Cl)ccc2c(=O)c2sccc12` returned a melting point above 280 °C. Regarding `N#Cc1nn(-c2c(Cl)cc(-c3ccc(C(F)(F)F)cc3)cc2Cl)c(N)c1Br`, the melting point was in the range of 178 to 180 °C. In turn, `CCCc1c(OCCCCCOc2ccc3cc(OCC(=O)O)ccc3c2CCC(=O)O)ccc2c1OCCC2=O` had a melting point of 160 to 163 °C.

For the compound `C[C@H]1C=CC(Sc2ccccc2)=CC[C@H]1O`, the melting point was 54 to 56 °C. In turn, `Cc1nc(Cl)c(C)c(Cl)c1C` returned a melting point of 67 to 68 °C.

In the case of `COc1ccc2c(c1)OCC(C(=O)O)O2` (centres undefined), the melting point fell in the range of 120 to 121 °C. In turn, `COc1cc2nc(N3CCN(C(=O)C4CC=CCC4)CC3)nc(N)c2cc1OC` (centres undefined) showed a melting point of 211 to 213 °C. The compound `CC(C)=CCN1CC(NC(=O)Nc2cccc(C(=O)O)c2)C(=O)N(CC(=O)c2ccccc2C)c2cc(C)ccc21` (centres undefined) displayed a melting point of 129 to 131 °C. For `COC(=O)CCc1ccc(N2CCN(c3ccc4c(c3)CCC4=O)C2=O)cc1`, the melting point was 204 to 206 °C. In turn, `C#CCOc1c(Cl)cc(Cl)cc1C(=O)NCC1CCCN1C1CCCCC1` (centres undefined) showed a melting point of 84 to 85 °C. For the compound `CCOC(=O)c1ccc2ccccc2c1O`, the melting point was in the range of 48.5 to 49 °C. `COCCCCc1cccc(C2(c3ccc(OC(F)F)cc3)N=C(N)N(C)C2=O)c1` (centres undefined) came in with a melting point of 36 to 39 °C. The compound `CC1CCC(=NNc2ccc([N+](=O)[O-])cc2[N+](=O)[O-])c2ncc(C(=O)O)c(=O)n21` (centres undefined) yielded a melting point of 257 to 258 °C.

With `O=Cc1c(-c2ccccc2F)ccc2c1OCO2`, the melting point is 84 to 86 °C.

On to `CC(C)(C)Nc1ccncc1NC(=S)NC1CCCCC1`, for which the melting point is 216 to 218 °C.

(Values after a melting point compilation (Tetko et al.; mined from patent text by program, amines drawn as free bases though some values may be those of a salt).)
